Laboratory results taken from ChEMBL document CHEMBL4706661, “Synthesis and vasorelaxant evaluation of novel 7-methoxyl-2,3-disubstituted-quinoxaline derivatives” (2021).
Calls of active or inactive are those of the source. The rule behind the calls is not given here.

Columns and labels:
Thoracic aorta [1] = assay: Vasorelaxant activity in C57 mouse thoracic aortic rings containing endothelium assessed as reduction in phenylephrine-induced contractions at 3 to 300 uM measured for 16 mins by myograph assay; format: functional, tissue-based; settings: dose 3-300 µM
Thoracic aorta [2] = assay: Vasorelaxant activity in C57 mouse thoracic aortic rings assessed as reduction in high extracellular K+-induced contractions at 3 to 300 uM measured for 16 mins in absence of endothelium by myograph assay; format: functional, tissue-based; settings: dose 3-300 µM
Thoracic aorta [3] = assay: Vasorelaxant activity in C57 mouse thoracic aortic rings containing endothelium assessed as reduction in high extracellular K+-induced contractions measured for 16 mins by myograph assay; format: functional, tissue-based; settings: dose 3-300 µM
Thoracic aorta [4] = assay: Vasorelaxant activity in C57 mouse thoracic aortic rings containing endothelium assessed as reduction in phenylephrine-induced contractions at 300 uM after 40 mins by myograph method; format: functional
Thoracic aorta [5] = assay: Vasorelaxant activity in C57 mouse thoracic aortic rings containing endothelium assessed as reduction in high extracellular K+-induced contractions at 3 to 300 uM pretreated with nitric oxide synthase inhibitor, L-NAME and measured for 16 mins by myograph method; format: functional, tissue-based; settings: dose 3-300 µM
Thoracic aorta [6] = assay: Vasorelaxant activity in C57 mouse thoracic aortic rings assessed as reduction in phenylephrine-induced contractions at 3 to 300 uM measured for 16 mins in absence of endothelium by myograph method; format: functional, tissue-based; settings: dose 3-300 µM
Thoracic aorta [7] = assay: Vasorelaxant activity in C57 mouse thoracic aortic rings containing endothelium assessed as reduction in phenylephrine-induced contractions at 3 to 300 uM pretreated with nitric oxide synthase inhibitor, L-NAME and measured for 16 mins by myograph method; format: functional, tissue-based; settings: dose 3-300 µM

Structure (SMILES)	Activity (Thoracic aorta [1])	Activity (Thoracic aorta [2])	Activity (Thoracic aorta [3])	inhibition at 300 µM (Thoracic aorta [4]) [%]	Activity (Thoracic aorta [5])	Activity (Thoracic aorta [6])	Activity (Thoracic aorta [7])
COc1ccc2nc(N3CCCC3)c(N3CCN(Cc4ccccc4)CC3)nc2c1	inactive	–	–	–	–	–	–
COc1ccc2nc(Oc3ccc(-c4ccc(C#N)cc4)cc3)c(N3CCN(c4ccccc4)CC3)nc2c1	Active	Active	Dose-dependent effect	–	–	–	–
COC(=O)C1CCN(c2nc3cc(OC)ccc3nc2N2CCCC2)CC1	Dose-dependent effect	Active	Dose-dependent effect	72.7	Active	Active	Active
CCN1CCN(c2nc3cc(OC)ccc3nc2N2CCCC2)CC1	Dose-dependent effect	Active	Dose-dependent effect	50	Active	Active	Active
COc1ccc2nc(Oc3ccc(-c4ccc(C#N)cc4)cc3)c(N3CCN(C)CC3)nc2c1	Active	Active	Dose-dependent effect	–	–	–	–
COc1ccc2nc(N3CCCC3)c(N3CCN(c4ccccc4)CC3)nc2c1	inactive	–	–	–	–	–	–
COc1ccc2nc(Oc3ccc(-c4ccccc4)cc3)c(N3CCCC3)nc2c1	inactive	–	–	–	–	–	–
COc1ccc2nc(N3CCCC3)c(N3CCOCC3)nc2c1	inactive	–	–	–	–	–	–
COc1ccc2nc(NC#N)c(N3CCN(Cc4ccccc4)CC3)nc2c1	inactive	–	–	–	–	–	–
COc1ccc2nc(N3CCCC3)c(N3CCN(C)CC3)nc2c1	Dose-dependent effect	Active	Dose-dependent effect	50	Active	Active	Active
